Data on five compounds can be found in paper PMC6853638, “TMC1 is an essential component of a leak channel that modulates tonotopy and excitability of auditory hair cells in mice” (eLife, 2019).

The structures appear in SMILES notation. Where “and” joins values, the source holds several entries; their conditions need not be identical. Equal entries are not always repeated. Some results are limits rather than exact numbers.

Series [1] addresses T1, TMC1-mediated leak conductance (Mus musculus, UniProt Q8R4P5).
T1 sequence (Q8R4P5 1-757): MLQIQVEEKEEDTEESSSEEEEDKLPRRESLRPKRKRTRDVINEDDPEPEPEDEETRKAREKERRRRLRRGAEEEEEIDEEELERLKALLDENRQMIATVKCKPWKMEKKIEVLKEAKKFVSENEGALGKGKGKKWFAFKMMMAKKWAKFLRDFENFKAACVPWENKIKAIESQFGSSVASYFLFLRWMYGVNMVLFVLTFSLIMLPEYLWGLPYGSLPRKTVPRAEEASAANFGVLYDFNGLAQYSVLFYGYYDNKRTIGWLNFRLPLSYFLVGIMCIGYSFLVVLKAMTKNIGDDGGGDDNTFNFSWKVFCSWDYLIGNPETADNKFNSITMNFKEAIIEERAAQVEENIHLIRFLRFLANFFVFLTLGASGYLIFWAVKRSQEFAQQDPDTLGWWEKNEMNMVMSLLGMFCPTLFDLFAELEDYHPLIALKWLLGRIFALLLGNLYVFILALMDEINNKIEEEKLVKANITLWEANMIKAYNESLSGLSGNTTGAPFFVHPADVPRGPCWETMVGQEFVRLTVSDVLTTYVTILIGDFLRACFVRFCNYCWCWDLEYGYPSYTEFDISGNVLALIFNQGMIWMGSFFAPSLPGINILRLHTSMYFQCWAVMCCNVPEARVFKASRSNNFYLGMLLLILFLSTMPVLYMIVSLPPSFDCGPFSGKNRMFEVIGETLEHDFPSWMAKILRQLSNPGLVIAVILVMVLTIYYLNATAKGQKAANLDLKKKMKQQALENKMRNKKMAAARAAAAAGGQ
Description: Background/leak current (IBG) inhibition by blockers, whole-cell voltage clamp of OHCs. It counts as cell-based. As for the experimental part:
(§1) Hair cells were recorded using whole-cell voltage or current clamp as previously described ([Xiong et al., 2012]). All experiments were performed at room temperature (20–25°C). Briefly, the basilar membrane with hair cells was acutely dissected from neonatal mice. […] The acutely isolated or cultured basilar membrane was used for electrophysiological recording within 1 h. Hair cells were imaged under an upright microscope (BX51WI, Olympus, Tokyo, Japan) with a 60 × water immersion objective and an sCMOS camera (ORCA Flash4.0, Hamamatsu, Hamamatsu City, Japan) controlled by MicroManager 1.6 software ([Edelstein et al., 2010]). Patch pipettes were made from borosilicate glass capillaries (BF150-117-10, Sutter Instrument Co., Novato, CA) with a pipette puller (P-2000, Sutter) and polished on a microforge (MF-830, Narishige, Tokyo, Japan) to resistances of 4–6 M'Ω. […] Hair cells were recorded with a patch-clamp amplifier (EPC 10 USB and Patchmaster software, HEKA Elektronik, Lambrecht/Pfalz, Germany).
(§2) The sampling rate was 1 kHz for leak current recording, 50 kHz for the IV protocol and current-clamp recording, and 100 kHz for unitary channel recording. The voltage-clamp used a –70 mV holding potential, and the current-clamp was held at 0 pA. Only recordings with a current baseline <20 pA in NMDG solution were used for statistical analysis.
(§3) Dose-inhibition curves were fitted with a Hill equation: Ix/Imax=X^h/(K^h+X^h))
(§4) Where K is the half-inhibition dose (IC50) and h is the Hill slope. Imax is the maximal current in control condition.

Series [2] has as its target T2, MET channel (Mus musculus, UniProt Q8R4P5).
T2 construct: the basilar membrane with hair cells was acutely dissected from neonatal mice; endogenous in cells; host or cells: outer hair cells of acutely dissected neonatal mouse cochlea
The series is described as follows: MET current (IMET) inhibition by blockers, whole-cell voltage clamp of OHCs with glass-probe hair-bundle deflection. It counts as cell-based. As for the experimental part: All experiments were performed at room temperature (20–25°C). Briefly, the basilar membrane with hair cells was acutely dissected from neonatal mice. […] The acutely isolated or cultured basilar membrane was used for electrophysiological recording within 1 h. […] Hair cells were recorded with a patch-clamp amplifier (EPC 10 USB and Patchmaster software, HEKA Elektronik, Lambrecht/Pfalz, Germany).
as §2
The hair bundle was deflected by two types of mechanical stimulus, fluid jet and glass probe. […] In brief, a 40 Hz sinusoidal wave stimulus was delivered by a 27-mm-diameter piezoelectric disc driven by a home-made piezo amplifier pipette with a tip diameter of 3–5 μm positioned 5–10 μm from the hair bundle to evoke maximum MET currents. […] The actuator was driven with voltage steps that were low-pass filtered at 10 KHz. To avoid bundle damage caused by overstimulation, the glass probe was shaped to have a slightly smaller diameter than the hair bundles, and the stimulation distance was 800 nm for macroscopic current and 100 nm for unitary channel recording. For hair bundle removal, a pipette with 1 μm diameter tip was used to suck away the hair bundles of the target OHCs. The hair-bundle-removed OHCs with good condition were further recorded. Examined by a fluid-jet stimulation, the OHCs without obvious MET current were further measured for the leak current.
as §3, §4

The next series concerns the target T3, leak current in OHCs (Mus musculus, UniProt Q8R4P5).
T3 construct: the basilar membrane with hair cells was acutely dissected from neonatal mice; endogenous in cells; host or cells: outer hair cells of acutely dissected neonatal mouse cochlea
T3 sequence (Q8R4P5 1-757): T1 sequence (Q8R4P5 1-757)
Description: Ion-permeation tests of the leak current (ion substitution in the external solution). It counts as cell-based. As to conditions: 150 mM NaCl partially or completely replaced (150 mM CsCl; 75 mM Ca2+); compared with Na+. As for the experimental part:
(§5) Hair cells were recorded using whole-cell voltage or current clamp as previously described ([Xiong et al., 2012]). All experiments were performed at room temperature (20–25°C). Briefly, the basilar membrane with hair cells was acutely dissected from neonatal mice. […] The acutely isolated or cultured basilar membrane was used for electrophysiological recording within 1 h. Hair cells were imaged under an upright microscope (BX51WI, Olympus, Tokyo, Japan) with a 60 × water immersion objective and an sCMOS camera (ORCA Flash4.0, Hamamatsu, Hamamatsu City, Japan) controlled by MicroManager 1.6 software ([Edelstein et al., 2010]). Patch pipettes were made from borosilicate glass capillaries (BF150-117-10, Sutter Instrument Co., Novato, CA) with a pipette puller (P-2000, Sutter) and polished on a microforge (MF-830, Narishige, Tokyo, Japan) to resistances of 4–6 M'Ω. Intracellular solution contained (in mM): 140 CsCl, 1 MgCl2, 0.1 EGTA, 2 Mg-ATP, 0.3 Na-GTP, and 10 H-HEPES, pH 7.2), except when CsCl was replaced with KCl in current-clamp. Hair cells were recorded with a patch-clamp amplifier (EPC 10 USB and Patchmaster software, HEKA Elektronik, Lambrecht/Pfalz, Germany).
(§6) In Figure 6A, LiCl and CsCl were 150 mM, completely substituting for NaCl.

Another series addresses T4, leak current (Mus musculus, UniProt Q8R4P5).
T4 construct: the basilar membrane with hair cells was acutely dissected from neonatal mice; endogenous in cells; host or cells: outer hair cells of acutely dissected neonatal mouse cochlea
T4 sequence (Q8R4P5 1-757): T1 sequence (Q8R4P5 1-757)
Description: Background leak current in graded Ca2+ and Na+ concentrations (wild-type and Tmc1-knockout OHCs). It counts as cell-based. The note with it: 35 mM [Ca2+]o. As to the method: as §5, §6
The osmotic pressure of each solution was re-adjusted to 300–320 mOsm/kg with sucrose, and the pH was adjusted to 7.4.

Series [3] addresses T2, MET channel. Description: MET current in graded Ca2+ and Na+ concentrations. It counts as cell-based. The note with it: wild-type OHCs. As to the method: as §1
The hair bundle was deflected by two types of mechanical stimulus, fluid jet and glass probe. […] The hair-bundle-removed OHCs with good condition were further recorded. Examined by a fluid-jet stimulation, the OHCs without obvious MET current were further measured for the leak current. […]

For series [4], the target named is T2, MET channel. The series is described as follows: Location-specific macroscopic MET current in OHCs, fluid-jet stimulation. It counts as cell-based. The note with it: wild-type OHCs in 35 mM Ca2+. As for the experimental part:
as §5
(§7) For single-channel recordings, we followed published procedures ([Ricci et al., 2003]; [Xiong et al., 2012]). The intracellular solution was the same for macroscopic and microscopic current recording. […] After bundle destruction, fresh external solution was given to re-establish the corresponding extracellular ionic environment. […] Only traces with obvious single-channel events were included for analyzing.
The sampling rate was 1 kHz for leak current recording, 50 kHz for the IV protocol and current-clamp recording, and 100 kHz for unitary channel recording. […]
The hair bundle was deflected by two types of mechanical stimulus, fluid jet and glass probe. […] The hair-bundle-removed OHCs with good condition were further recorded. Examined by a fluid-jet stimulation, the OHCs without obvious MET current were further measured for the leak current.

For series [5], the system named is MET channel. The series is described as follows: Unitary MET channel current recording in OHCs. It counts as cell-based, mouse.
Description: as §7, §2
The hair bundle was deflected by two types of mechanical stimulus, fluid jet and glass probe. The fluid jet stimulation was performed as described previously ([Beurg et al., 2014]). In brief, a 40 Hz sinusoidal wave stimulus was delivered by a 27-mm-diameter piezoelectric disc driven by a home-made piezo amplifier pipette with a tip diameter of 3–5 μm positioned 5–10 μm from the hair bundle to evoke maximum MET currents. […] The actuator was driven with voltage steps that were low-pass filtered at 10 KHz. To avoid bundle damage caused by overstimulation, the glass probe was shaped to have a slightly smaller diameter than the hair bundles, and the stimulation distance was 800 nm for macroscopic current and 100 nm for unitary channel recording. For hair bundle removal, a pipette with 1 μm diameter tip was used to suck away the hair bundles of the target OHCs. The hair-bundle-removed OHCs with good condition were further recorded. Examined by a fluid-jet stimulation, the OHCs without obvious MET current were further measured for the leak current.

Series [6] relates to MET channel. Set-up: method as in Kim and Fettiplace, 2013. As to conditions: P5 apical OHCs; ref Kim and Fettiplace, 2013; cited from earlier work.

T2 sequence (Q4KL25 whole entry partner, one chain of several): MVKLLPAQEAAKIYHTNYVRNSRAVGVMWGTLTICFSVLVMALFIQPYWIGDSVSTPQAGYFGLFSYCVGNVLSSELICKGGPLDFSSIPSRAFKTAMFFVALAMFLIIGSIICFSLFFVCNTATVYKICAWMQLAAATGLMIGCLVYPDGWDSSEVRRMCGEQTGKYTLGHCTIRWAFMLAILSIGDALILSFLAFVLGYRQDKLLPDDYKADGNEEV
T2 sequence (Q8K467 29-153 partner, one chain of several): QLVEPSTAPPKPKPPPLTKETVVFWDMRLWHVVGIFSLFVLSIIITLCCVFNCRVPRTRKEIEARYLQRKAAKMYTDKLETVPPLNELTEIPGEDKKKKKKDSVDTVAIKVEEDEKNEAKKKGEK
T2 sequence (Q9Z309 whole entry partner, one chain of several): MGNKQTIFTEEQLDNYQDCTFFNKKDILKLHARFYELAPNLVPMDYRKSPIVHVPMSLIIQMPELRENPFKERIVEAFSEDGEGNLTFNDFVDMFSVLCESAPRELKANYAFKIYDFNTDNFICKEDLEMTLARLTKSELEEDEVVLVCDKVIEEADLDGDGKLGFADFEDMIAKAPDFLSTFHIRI

For the compound `[Cl][Gd]([Cl])[Cl]` [Gd^3+, GdCl3], the “effect on the leak current” value in series [1] ([Gd3+]o up to 80 μM) was “not affected”.
Take `[La+3]` [La3+]: the “met (normalized)” value on MET channel [2] (La3+ 4000) is 0.01513 and 0.01398 and 0.02694 and 0.01393 and 0.02154 and 0.01619 and 0.02515.
The IC50 is the concentration at which inhibition is half-maximal. On to `[Cl][La]([Cl])[Cl]` [La^3+, LaCl3], for which the IC50 on MET channel [2] (OHCs, 800 nm step deflection, […] Ca2+, holding −70 mV, Hill fit, read-out: IC50, IMET) is 259 µM; in series [1] (OHCs, […] Ca2+, holding −70 mV, Hill fit, read-out: IC50, IBG (leak conductance)), 531 µM.
Take `[Gd+3]` [Gd3+]: on MET channel [2] (Gd3+ 4000), the “MET (normalized), first block c1-c15” value is 0.01958 and 0.0181 and 0.03486 and 0.01803 and 0.02788 and 0.02096 and 0.03255.
In the case of `[Ca+2].[Cl-].[Cl-]` [Ca^2+, CaCl2], at leak current in OHCs, the “size of ILeak conducted by the substituted cation” value is on record as “robustly blocked”. At leak current, the “block of the leak current” value is “sufficient to block the leak current to an extent similar to TMC1 removal in OHCs”. Further, the “[Ca2+]o after which the MET current reached a plateau, sufficient to block the leak current” value on MET channel [3] was > 10 mM. For the same compound, the “macroscopic IMET” value at MET channel [4] (location D05, holding −70 mV) was “–369 ± 13 pA”; on MET channel [4] (location D40, holding −70 mV), “–384 ± 30 pA”; at MET channel [4] (location D60, holding −70 mV) it was “–461 ± 31 pA”. The “unitary MET channel current” value in the series with MET channel [5] (35 mM Ca2+, location D05, holding −70 mV) is on record as “–4.7 ± 0.1 pA”; in the series with MET channel [5] (35 mM Ca2+, location D20, holding −70 mV), “–4.8 ± 0.1 pA”; in the series with MET channel [5] (35 mM Ca2+, location D60, holding −70 mV), “–4.9 ± 0.1 pA”; with MET channel [5] (35 mM [Ca2+]o, both low-frequency and high-frequency OHCs), ~ 5 pA. Also, the “Ca2+ permeability of the MET channel, PCa/PCs” value with MET channel [6] is listed as “around six”.
